# Results from US20250270213A1, “PI3Ka INHIBITORS” (Synnovation Therapeutics, Inc., priority 2022, published 2025).
# Tested on: T47D (PIK3CA H1047R) cells
# Assay: pS473 AKT assay with 2.5% FBS, T47D cells
# Format: cell-based
# Settings: Homo sapiens, pSer473 AKT, DMEM with 2.5% FBS, 2 h treatment, read-out: T47D_IC50
# Protocol: Example B. pS473 AKT Assay Protocol with 2.5% FBS
# T47D (PIK3CA H1047R) cells were cultured using 10-cm petri dishes with recommended medium plus 10% fetal bovine serum. One day before the assay, cells were seeded in 96-well plates. After overnight incubation, the medium was changed to DMEM with 2.5% fetal bovine serum (FBS) and the cells were treated with different concentrations of the compounds for 2 h. Cells were then fixed using 4% paraformaldehyde at room temperature for 20 min. Aspirate 4% paraformaldehyde, and wash cells using 1× regular phosphate buffered saline 3 times, 5 min each. Aspirate any residual phosphate buffered saline and block cells using 10% goat serum containing 1% bovine serum albumin and 0.3% Triton X-100 at room temperature for 1 h. Without any additional washing, primary antibodies (rabbit anti-pSer473 AKT) were diluted using blocking buffer and added at a final volume of 50 microliter per well. Keep assay plates with primary antibodies overnight at 4° C. Wash cells using 1× regular phosphate buffered saline 3 times, 5 min each. After the final wash, incubate cells with horseradish peroxidase-conjugated secondary antibodies (goat Anti-rabbit IgG) diluted using the same blocking buffer at room temperature for 1 h. Wash cells thoroughly using 1× regular phosphate buffered saline 3 times, 5 min each. Aspirate any residual phosphate buffered saline. Add Super-Signal ELISA Pico Chemiluminescent Substrate at a final volume of 100 microliter per well. Read plates on i3x Multi-Mode Microplate Reader and calculate IC50 values using GraphPad Prism software.
row,SMILES,IC50
1,"COCCn1ncc2c3c(C(C)Nc4ccc(Cl)nc4-c4noc(=O)[nH]4)cc(C)cc3c(=O)n(C)c21 (centres unmarked) [Compound 67, 3-(6-Chloro-3-((1-(3-(2-methoxyethyl)-4,7-dimethyl-5-oxo-4,5-dihydro-3H-pyrazolo[3,4-c]isoquinolin-9-yl)ethyl)amino)pyridin-2-yl)-1,2,4-oxadiazol-5(4H)-one]",< 1 µM
2,"CCn1ncc2c3c(C(C)Nc4ccc(Cl)nc4-c4noc(=O)[nH]4)cc(C(F)(F)F)cc3c(=O)n(C)c21 (centres unmarked) [Compound 69, 3-(6-Chloro-3-((1-(3-ethyl-4-methyl-5-oxo-7-(trifluoromethyl)-4,5-dihydro-3H-pyrazolo[3,4-c]isoquinolin-9-yl)ethyl)amino)pyridin-2-yl)-1,2,4-oxadiazol-5(4H)-one]",< 1 µM
3,"Cc1cc(C(C)Nc2ccc(Cl)nc2-c2noc(=O)[nH]2)c2c(c1)c(=O)n1c3c2cnn3C(C)CC1 (centres unmarked) [Compound 70, 3-(6-Chloro-3-((1-(3,8-dimethyl-6-oxo-4,5-dihydro-3H,6H-2,2a,5a-triazaaceanthrylen-10-yl)ethyl)amino)pyridin-2-yl)-1,2,4-oxadiazol-5(4H)-one]",< 1 µM
4,"CCc1ncn2c3c(C(C)Nc4ccc(Cl)nc4-c4noc(=O)[nH]4)cc(C)cc3c(=O)n(C)c12 (centres unmarked) [Compound 71, 3-(6-Chloro-3-((1-(3-ethyl-4,7-dimethyl-5-oxo-4,5-dihydroimidazo[1,5-a]quinazolin-9-yl)ethyl)amino)pyridin-2-yl)-1,2,4-oxadiazol-5(4H)-one]",< 1 µM
5,"CCn1ncc2c3c(C(C)Nc4ccc(Cl)nc4C(=O)NC4CCN(C)CC4)cc(C)cc3c(=O)n(C)c21 (centres unmarked) [Compound 73, 6-Chloro-3-((1-(3-ethyl-4,7-dimethyl-5-oxo-4,5-dihydro-3H-pyrazolo[3,4-c]isoquinolin-9-yl)ethyl)amino)-N-(1-methylpiperidin-4-yl)picolinamide]",< 1 µM
6,"CCn1ncc2c3c(C(C)Nc4ccc(Cl)nc4C(=O)NOC)cc(C)cc3c(=O)n(C)c21 (centres unmarked) [Compound 75, 6-chloro-3-((1-(3-ethyl-4,7-dimethyl-5-oxo-4,5-dihydro-3H-pyrazolo[3,4-c]isoquinolin-9-yl)ethyl)amino)-N-methoxypicolinamide]",< 1 µM
7,"CCn1ncc2c3c(C(CO)Nc4ccc(Cl)nc4-c4ccncc4F)cc(C)cc3c(=O)n(C)c21 (centres unmarked) [Compound 76, 9-(1-((6-Chloro-3′-fluoro-[2,4′-bipyridin]-3-yl)amino)-2-hydroxyethyl)-3-ethyl-4,7-dimethyl-3,4-dihydro-5H-pyrazolo[3,4-c]isoquinolin-5-one]",< 1 µM
8,"CCn1ncc2c3c(C(CO)Nc4ccc(Cl)nc4-c4cnn(C)c4C)cc(C)cc3c(=O)n(C)c21 (centres unmarked) [Compound 78, 9-(1-((6-Chloro-2-(1,5-dimethyl-1H-pyrazol-4-yl)pyridin-3-yl)amino)-2-hydroxyethyl)-3-ethyl-4,7-dimethyl-3,4-dihydro-5H-pyrazolo[3,4-c]isoquinolin-5-one]",< 1 µM
9,"CCn1ncc2c3c(C(C)Nc4ccc(Cl)nc4-c4cnn(C5CCN(C)CC5)c4)cc(C)cc3c(=O)n(C)c21 (centres unmarked) [Compound 79, 9-(1-((6-Chloro-2-(1-(1-methylpiperidin-4-yl)-1H-pyrazol-4-yl)pyridin-3-yl)amino)ethyl)-3-ethyl-4,7-dimethyl-3,4-dihydro-5H-pyrazolo[3,4-c]isoquinolin-5-one]",< 1 µM
10,"CCn1ncc2c3c(C(C)Nc4ccc(Cl)nc4N4CCN(C(C)=O)CC4)cc(C)cc3c(=O)n(C)c21 (centres unmarked) [Compound 80, 9-(1-((2-(4-Acetylpiperazin-1-yl)-6-chloropyridin-3-yl)amino)ethyl)-3-ethyl-4,7-dimethyl-3,4-dihydro-5H-pyrazolo[3,4-c]isoquinolin-5-one]",< 1 µM
11,"Cc1cc(C(C)Nc2ccc(Cl)nc2-c2ccc(=O)n(C)c2)c2c(c1)c(=O)n(C)c1c2cnn1C1CN(C)C1 (centres unmarked) [Compound 85, 9-(1-((6-chloro-1′-methyl-6′-oxo-1′,6′-dihydro-[2,3′-bipyridin]-3-yl)amino)ethyl)-4,7-dimethyl-3-(1-methylazetidin-3-yl)-3,4-dihydro-5H-pyrazolo[3,4-c]isoquinolin-5-one]",< 1 µM

# Now from value to compound:
row,IC50,SMILES
1,< 1 µM,"Cc1cc(C(C)Nc2ccc(Cl)nc2-c2noc(=O)[nH]2)c2c(c1)c(=O)n(C)c1c2cnn1C1CCOC1 (centres unmarked) [Compound 66, 3-(6-Chloro-3-((1-(4,7-dimethyl-5-oxo-3-(tetrahydrofuran-3-yl)-4,5-dihydro-3H-pyrazolo[3,4-c]isoquinolin-9-yl)ethyl)amino)pyridin-2-yl)-1,2,4-oxadiazol-5(4H)-one]"
2,< 1 µM,"Cc1cc(C(C)Nc2ccc(Cl)nc2-c2noc(=O)[nH]2)c2c(c1)c(=O)n(C)c1c2cnn1CC1CC1 (centres unmarked) [Compound 68, 3-(6-Chloro-3-((1-(3-(cyclopropylmethyl)-4,7-dimethyl-5-oxo-4,5-dihydro-3H-pyrazolo[3,4-c]isoquinolin-9-yl)ethyl)amino)pyridin-2-yl)-1,2,4-oxadiazol-5(4H)-one]"
3,< 1 µM,"CCn1ncc2c3c(C(C)Nc4cccnc4-c4nnn[nH]4)cc(C)cc3c(=O)n(C)c21 (centres unmarked) [Compound 72, 9-(1-((2-(1H-Tetrazol-5-yl)pyridin-3-yl)amino)ethyl)-3-ethyl-4,7-dimethyl-3,4-dihydro-5H-pyrazolo[3,4-c]isoquinolin-5-one]"
4,< 1 µM,"CCn1ncc2c3c(C(C)Nc4ccc(Cl)nc4C(=O)Nc4ccncc4)cc(C)cc3c(=O)n(C)c21 (centres unmarked) [Compound 74, 6-chloro-3-((1-(3-ethyl-4,7-dimethyl-5-oxo-4,5-dihydro-3H-pyrazolo[3,4-c]isoquinolin-9-yl)ethyl)amino)-N-(pyridin-4-yl)picolinamide]"
5,< 1 µM,"CCn1ncc2c3c(C(CO)Nc4ccc(Cl)nc4-c4cnn(C)c4)cc(C)cc3c(=O)n(C)c21 (centres unmarked) [Compound 77, 9-(1-((6-Chloro-2-(1-methyl-1H-pyrazol-4-yl)pyridin-3-yl)amino)-2-hydroxyethyl)-3-ethyl-4,7-dimethyl-3,4-dihydro-5H-pyrazolo[3,4-c]isoquinolin-5-one]"
6,< 1 µM,"Cc1cc(C(C)Nc2ccc(Cl)nc2-c2cnn(C)c2)c2c(c1)c(=O)n(C)c1c2cnn1C1CN(C)C1 (centres unmarked) [Compound 81, 9-(1-((6-Chloro-2-(1-methyl1H-pyrazol-4-yl)pyridin-3-yl)amino)ethyl)-4,7-dimethyl-3-(1-methylazetidin-3-yl)-3,4-dihydro-5H-pyrazolo[3,4-c]isoquinolin-5-one]"
7,< 1 µM,"Cc1cc(C(C)Nc2ccc(Cl)nc2-c2ncn(C)n2)c2c(c1)c(=O)n(C)c1c2cnn1C1CN(C)C1 (centres unmarked) [Compound 82, 9-(1-((6-chloro-2-(1-methyl-1H-1,2,4-triazol-3-yl)pyridin-3-yl)amino)ethyl)-4,7-dimethyl-3-(1-methylazetidin-3-yl)-3,4-dihydro-5H-pyrazolo[3,4-c]isoquinolin-5-one]"
8,< 1 µM,"Cc1cc(C(C)Nc2ccc(Cl)nc2-c2ncn(CCO)n2)c2c(c1)c(=O)n(C)c1c2cnn1C1CN(C)C1 (centres unmarked) [Compound 83, 9-(1-((6-chloro-2-(1-(2-hydroxyethyl)-1H-1,2,4-triazol-3-yl)pyridin-3-yl)amino)ethyl)-4,7-dimethyl-3-(1-methylazetidin-3-yl)-3,4-dihydro-5H-pyrazolo[3,4-c]isoquinolin-5-one]"
9,< 1 µM,"Cc1cc(C(C)Nc2ccc(Cl)nc2-c2cn[nH]c2)c2c(c1)c(=O)n(C)c1c2cnn1C1CN(C)C1 (centres unmarked) [Compound 84, 9-(1-((6-chloro-2-(1H-pyrazol-4-yl)pyridin-3-yl)amino)ethyl)-4,7-dimethyl-3-(1-methylazetidin-3-yl)-3,4-dihydro-5H-pyrazolo[3,4-c]isoquinolin-5-one]"
